The target of the test is T1, human αvβ3 (Homo sapiens, UniProt P05106+P06756).
T1 construct: purchased Chemicon CC1019
T1 sequence (P06756 31-889 limits assumed): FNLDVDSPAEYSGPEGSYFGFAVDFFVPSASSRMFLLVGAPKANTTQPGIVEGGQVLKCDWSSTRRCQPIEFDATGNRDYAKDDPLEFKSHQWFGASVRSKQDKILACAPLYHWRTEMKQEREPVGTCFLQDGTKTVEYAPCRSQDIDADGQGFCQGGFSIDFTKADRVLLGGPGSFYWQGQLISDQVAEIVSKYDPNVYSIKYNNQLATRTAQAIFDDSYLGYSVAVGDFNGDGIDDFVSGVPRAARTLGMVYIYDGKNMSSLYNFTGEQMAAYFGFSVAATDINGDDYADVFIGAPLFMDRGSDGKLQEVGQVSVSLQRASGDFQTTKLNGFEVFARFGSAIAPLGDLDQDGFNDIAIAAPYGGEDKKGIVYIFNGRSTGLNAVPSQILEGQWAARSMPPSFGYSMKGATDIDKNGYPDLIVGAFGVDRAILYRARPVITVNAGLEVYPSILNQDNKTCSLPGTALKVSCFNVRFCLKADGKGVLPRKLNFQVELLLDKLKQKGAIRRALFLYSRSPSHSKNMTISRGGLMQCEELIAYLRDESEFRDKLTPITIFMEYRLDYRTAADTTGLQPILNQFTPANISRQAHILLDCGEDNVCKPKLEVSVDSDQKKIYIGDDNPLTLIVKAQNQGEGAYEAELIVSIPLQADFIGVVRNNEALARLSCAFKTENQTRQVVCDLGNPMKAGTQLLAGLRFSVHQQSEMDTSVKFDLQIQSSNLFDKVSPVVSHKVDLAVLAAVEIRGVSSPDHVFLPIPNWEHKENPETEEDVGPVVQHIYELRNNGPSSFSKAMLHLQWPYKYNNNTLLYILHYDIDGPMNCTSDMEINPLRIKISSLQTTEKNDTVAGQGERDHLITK
T1 sequence (P06756 891-1048 partner limits assumed): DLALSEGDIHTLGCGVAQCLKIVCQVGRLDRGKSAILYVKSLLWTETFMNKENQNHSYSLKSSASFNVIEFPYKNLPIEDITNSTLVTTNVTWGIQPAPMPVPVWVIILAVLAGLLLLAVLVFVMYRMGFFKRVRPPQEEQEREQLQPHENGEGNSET
T1 sequence (P05106 27-788): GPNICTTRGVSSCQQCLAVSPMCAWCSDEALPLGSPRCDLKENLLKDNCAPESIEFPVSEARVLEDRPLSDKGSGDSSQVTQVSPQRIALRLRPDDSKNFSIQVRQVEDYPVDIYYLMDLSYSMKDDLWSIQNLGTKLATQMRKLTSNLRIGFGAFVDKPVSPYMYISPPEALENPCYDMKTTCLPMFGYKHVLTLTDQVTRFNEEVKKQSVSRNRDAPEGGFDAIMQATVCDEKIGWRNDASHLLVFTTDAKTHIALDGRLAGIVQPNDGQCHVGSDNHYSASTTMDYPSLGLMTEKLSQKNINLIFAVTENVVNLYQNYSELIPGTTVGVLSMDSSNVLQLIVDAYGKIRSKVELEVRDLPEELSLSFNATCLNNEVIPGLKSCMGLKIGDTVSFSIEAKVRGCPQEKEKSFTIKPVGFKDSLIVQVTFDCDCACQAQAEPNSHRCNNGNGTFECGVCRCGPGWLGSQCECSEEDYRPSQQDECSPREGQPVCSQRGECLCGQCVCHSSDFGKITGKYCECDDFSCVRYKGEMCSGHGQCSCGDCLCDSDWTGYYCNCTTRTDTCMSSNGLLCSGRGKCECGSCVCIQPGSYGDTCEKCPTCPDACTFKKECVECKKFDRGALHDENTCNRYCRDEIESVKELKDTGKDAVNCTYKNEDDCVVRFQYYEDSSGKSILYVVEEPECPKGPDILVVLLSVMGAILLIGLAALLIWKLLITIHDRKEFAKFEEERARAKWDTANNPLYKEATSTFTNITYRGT
Briefly: αvβ3-vitronectin assay. As to conditions: ELISA plate coated with human αvβ3, biotinylated human vitronectin, room temperature; read-out: IC50 for inhibition of the αvβ3-vitronectin interaction. Format: binding. The protocol:
The assay is based on the method of Dennis (Dennis, M. S., et al., Proteins 15: 312-321 (1993)). Costar 9018 flat-bottom 96-well ELISA plates were coated overnight at 4° C. with 100 μL/well of 10 μg/mL human fibrinogen (Calbiochem 341578) in 20 mM Tris-HCl pH 7.5, 150 mM NaCl, 2 mM CaCl2, 0.02% NaN3 (TAC buffer), and blocked for 1 hr at 37° C. with 150 μL/well of TAC buffer containing 0.05% Tween 20 and 1% bovine serum albumin (TACTB buffer). After washing 3 times with 200 μL/well of 10 mM Na2 HPO4 pH 7.5, 150 mM NaCl, 0.01% Tween 20 (PBST buffer), controls or test compound (0.027-20.0 μM) were mixed with 40 μg/mL human GPIIbIIIa (Enzyme Research Laboratories) in TACTB buffer, and 100 μL/well of these solutions were incubated for 1 hr at 37° C. The plate was then washed 5 times with PBST buffer, and 100 μL/well of a monoclonal anti-GPIIbIIIa antibody in TACTB buffer (1 μg/mL, Enzyme Research Laboratories MabGP2b3a) was incubated at 37° C. for 1 hr. After washing (5 times with PBST buffer), 100 μL /well of goat anti-mouse IgG conjugated to horseradish peroxidase (Kirkegaard & Perry 14-23-06) was incubated at 37° C. for 1 hr (25 ng/mL in PBST buffer), followed by a 6-fold PBST buffer wash. The plate was developed by adding 100 μL/well of 0.67 mg o-phenylenediamine dihydrochloride per mL of 0.012% H2O2, 22 mM sodium citrate, 50 mM sodium phosphate, pH 5.0 at room temperature. The reaction was stopped with 50 μL/well of 2M H2SO4, and the absorbence at 492 nm was recorded. Percent (%) inhibition was calculated from the average of three separate determinations relative to buffer controls (no test compound added), and a four parameter fit (Marquardt, D. W., J. Soc. Indust. Appl. Math. 11:431-441 (1963)) was used to estimate the half maximal inhibition concentration (IC50).
The assay was based on the method of Niiya (Niiya, K., et al., Blood 70:475-483 (1987)). […] Following a 5-fold PBST buffer wash, the plate was developed and results were calculated as described for the fibrinogen-IIbIIIa assay.
In general, IC50 refers to the concentration needed to halve the response being measured. As to `CNc1cccc(CCOc2ccc3c(CCC(=O)O)csc3c2)n1` [Example 1, 3-(6-{2-[6-(methylamino)-2-pyridyl]ethoxy}benzo [b]thiophen-3-yl)propanoic acid], the IC50 was 30 nM.

As to `O=C(O)CCc1csc2cc(OCCc3ccc4c(n3)NCCC4)ccc12` [Example 2, 3-{6-[2-(5,6,7,8-Tetrahydro-[1,8]naphthyridin-2-yl)-ethoxy]-benzo[b]thiophen-3-yl}-propionic acid], the IC50 turned out to be 8 nM.

On to `CNc1cccc(CCOc2ccc3c(CCC(=O)O)coc3c2)n1` [Example 3, 3-(6-{2-[6-(Methylamino)-2-pyridyl]ethoxy}benzo[b]furan-3-yl)propanoic acid], for which the IC50 was 33 nM.

The values above are taken from patent publication US6872730B2, “Substituted benzofurans and benzothiophenes, methods of making and methods of use as integrin antagonists” (3-Dimensional Pharmaceuticals, Inc., priority 2001, dated 2005).
